Test results as given in paper PMC8042380, “Brusatol Derivative–34 Attenuates Allergic Airway Inflammation Via Inhibition of the Spleen Tyrosine Kinase Pathway” (Frontiers in Pharmacology, 2021).

Target: Spleen tyrosine kinase (Syk) (Homo sapiens, UniProt P43405)
Test: ADP-Glo kinase assay with purified active Syk (Promega Syk Kinase Enzyme System V3801), Poly E4Y1 substrate, ATP
Type: biochemical

Compound: COC(=O)[C@@]12OC[C@@]34C(CC5C(C)=C(OC(=O)CCC(=O)OCCCCOc6no[n+]([O-])c6S(=O)(=O)c6ccccc6)C(=O)C[C@]5(C)C3[C@@H](O)[C@@H]1O)OC(=O)[C@H](OC(=O)C=C(C)C)C42 (stereo partly shown) [Bru-34, Brusatol derivative-34]
- IC50: 540 nM
